Holding throughout (assay): NCI anticancer screen, dose series, 48 h
For test [1], the system named is TK-10.
For test [2], the system named is KM12.
In test [3] the test system is HCC 2998.
Test [4] deals with CCRF-CEM.
Test [5] has as its system MOLT-4.
The test system of test [6] is A498.
Test [7] has as its system ACHN.
Test [8] relates to OVCAR-4.
Test [9] has as its system SW-620.
Test [10] deals with IGROV-1.
The subject of test [11] is HOP-62.
Test [12] relates to OVCAR-3.
Test [13] relates to LOX IMVI.
Test [14] relates to EKVX.
For test [15], the system named is SK-MEL-5.
The test system of test [16] is Malme-3M.
Test [17] concerns COLO 205.

The structures appear in SMILES notation.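 Following 48 hours of exposure in 96-well plates, responses at five concentrations were used to interpolate endpoints linearly. Here, GI50 denotes the concentration required for 50% inhibition of growth.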 Activity calls are given as the source filed them. Cut-off read from the data, not from the text of the source: active = GI50 up to about 1.1 µM and inactive = higher. Some results are limits rather than exact numbers.

For the compound `NC(=O)C12CC3CC(CC(Br)(C3)C1)C2`, the GI50 in test [1], in test [2], in [3], in test [4], in test [5] and in [6] was > 100 µM (inactive) throughout. The GI50 in test [7], in [8], in test [9], in test [10], in test [11] and in test [12] was > 100 µM (inactive) throughout. In addition, the GI50 in test [13], in test [14] and in test [15] was > 100 µM (inactive) each time.
Take `CN(C)c1n/c(=N/c2cccc(Cl)c2)ss1`: the GI50 in test [1] is 55.2 µM (inactive); in [2], 17.5 µM (inactive); in [3], 20.4 µM (inactive); in test [4] it was 0.0405 µM (active); in test [5], 3.03 µM (inactive); in test [16], 14.1 µM (inactive). For the same compound, the GI50 in test [6] was 28.1 µM (inactive); in [7], 18.4 µM (inactive); in test [8], 14.6 µM (inactive); in [9] it was 5.52 µM (inactive); in test [10], 20.3 µM (inactive); in [11], 68.5 µM (inactive). Besides, the results for the GI50 in [13], in test [14] and in test [15] were 14.5 µM (inactive), 23.7 µM (inactive) and 27.5 µM (inactive), respectively.
Consider `Cc1nc2c(n1C(C)(C)C)C(=O)c1ccccc1C2=O`, for which the GI50 in test [1] was 82 µM (inactive); in [2], 74.1 µM (inactive); in test [3] it was > 100 µM (inactive); in test [4] it was 73.8 µM (inactive); in test [5] it was 49 µM (inactive); in test [16] it was 44.6 µM (inactive). Moreover, the GI50 was 64.1 µM (inactive) in [17]; 48.6 µM (inactive) in test [7]; 92.9 µM (inactive) in [8]; > 100 µM (inactive) in [9]; 96.6 µM (inactive) in test [10]; > 100 µM (inactive) in test [11]. The GI50 is 38.6 µM (inactive) in test [12], 41.5 µM (inactive) in test [13], > 100 µM (inactive) in test [14] and 38.9 µM (inactive) in test [15].
On to `CC1=CC(C)(c2c[nH]c3ccccc23)CC(C)(C)c2c1[nH]c1ccccc21` (centres undefined), for which the GI50 in test [1] was 43.1 µM (inactive); in [2], 23.7 µM (inactive); in [3], 14.5 µM (inactive); in [4], 9.55 µM (inactive); in test [5] it was 6.93 µM (inactive); in test [16], 16.6 µM (inactive). Also, the GI50 was 17.7 µM (inactive) in test [6]; 17.2 µM (inactive) in test [7]; 13.4 µM (inactive) in [8]; 16.9 µM (inactive) in test [9]; 16.2 µM (inactive) in test [10]; 22.8 µM (inactive) in test [11]. Further, the GI50 in [12] was 14 µM (inactive); in test [13] it was 15.2 µM (inactive); in test [14], 15.6 µM (inactive).
As to `O=C(CC1(O)C(=O)Nc2ccccc21)c1ccccc1O` (centres undefined), the GI50 in test [1], in test [5], in test [16], in [6], in test [17] and in [7] was > 100 µM (inactive) in each case. For the same compound, the GI50 in test [8], in [9], in [10], in test [11], in test [12] and in test [13] was > 100 µM (inactive) throughout. Also, the GI50 in [14] and in test [15] was > 100 µM (inactive) in each case.
Turning to `O/N=C1/C(=C/c2ccccc2)CCCC1C(NO)c1ccccc1` (centres undefined), the GI50 was > 100 µM (inactive) in test [1]; 85.3 µM (inactive) in [2]; 26.4 µM (inactive) in [5]; 44.2 µM (inactive) in test [16]; > 100 µM (inactive) in [6]; > 100 µM (inactive) in test [17]. Besides, the GI50 in test [7] was 68.4 µM (inactive); in test [8], 31.3 µM (inactive); in test [9] it was > 100 µM (inactive); in test [10], > 100 µM (inactive); in test [12] it was > 100 µM (inactive); in [13] it was > 100 µM (inactive). Further, in test [14], the GI50 was 61.9 µM (inactive).
Consider `O=C1c2ccccc2C(=O)c2c1ccc1c3ccccc3n(Cc3ccccc3)c21`, for which the GI50 is > 100 µM (inactive) in test [2]; > 100 µM (inactive) in [4]; > 100 µM (inactive) in test [5]; > 100 µM (inactive) in [16]; > 100 µM (inactive) in test [17]; 94.2 µM (inactive) in [7]. Moreover, the GI50 was 53.6 µM (inactive) in test [8]; > 100 µM (inactive) in test [9]; > 100 µM (inactive) in test [10]; > 100 µM (inactive) in test [11]; > 100 µM (inactive) in test [12]; > 100 µM (inactive) in [13]. The GI50 in test [14] and in test [15] was > 100 µM (inactive) in each case.
For the compound `COc1cc2cccc(/N=C/c3c(Br)ccc(OC)c3OC(C)C)c2cc1OC`, the GI50 in test [1] was 70.8 µM (inactive); in test [2], 30.8 µM (inactive); in test [3] it was 65.3 µM (inactive); in test [4], 25.7 µM (inactive); in test [5], 28.3 µM (inactive); in test [16], 74.5 µM (inactive). For the same compound, the GI50 in test [6] is > 100 µM (inactive); in test [17], > 100 µM (inactive); in test [7], 70.3 µM (inactive); in [8], 33 µM (inactive); in test [9], 32.4 µM (inactive); in [10] it was 59.4 µM (inactive). Also, the GI50 in test [11] is 53.2 µM (inactive); in test [12], 33.7 µM (inactive); in [14], > 100 µM (inactive); in test [15], 55.7 µM (inactive).
`CC(C)[C@H]1CO[C@]2(C)[C@@H]3CN(Cc4ccccc4)C[C@@H]3C(=O)N12`: the GI50 in test [1], in test [2], in test [4], in test [5], in [16] and in [17] was > 100 µM (inactive) throughout. The GI50 in test [7], in test [8], in test [9], in test [10], in [11] and in test [12] was > 100 µM (inactive) each time. In addition, the GI50 in [14] and in [15] was > 100 µM (inactive) in each case.
Take `COc1cc(Nc2nc3cc(C)ccc3nc2-c2ccccc2)cc(OC)c1OC`: the GI50 in [1] is 42 µM (inactive); in test [2], 34.4 µM (inactive); in test [3], 12.3 µM (inactive); in test [4] it was 29.8 µM (inactive); in [5], 18.3 µM (inactive); in test [16] it was 29.6 µM (inactive). For the same compound, the GI50 in test [6] was 45.6 µM (inactive); in test [17] it was 20.2 µM (inactive); in test [7], 26.7 µM (inactive); in [8] it was 33 µM (inactive); in test [9], 58.1 µM (inactive); in test [10] it was 63.8 µM (inactive). In addition, the GI50 in test [12] is 18.5 µM (inactive); in test [13] it was 27.2 µM (inactive); in [14] it was 20.7 µM (inactive); in [15], 19.2 µM (inactive).
For the compound `O=C(OCc1ccccc1)N1N=NC2C1C1CC(OCc3ccccc3)(OCc3ccccc3)C2O1` (centres undefined), the GI50 in test [2], in test [3], in [4], in test [5], in test [16] and in test [6] was > 100 µM (inactive) in each case. Besides, the GI50 in test [17], in test [7], in test [8], in test [9], in test [10] and in test [11] was > 100 µM (inactive) each time. For the same compound, the GI50 in test [12], in [13] and in test [15] was > 100 µM (inactive) in each case.
In the case of `C[C@]12CC/C(=N\OC(=O)Nc3ccccc3)C=C1CC[C@@H]1C2CC[C@@]2(C)C1CC[C@@H]2OC(=O)Nc1ccccc1` (some centres undefined), the GI50 in [1] is > 100 µM (inactive); in [2] it was 41.9 µM (inactive); in [3], > 100 µM (inactive); in test [4], > 100 µM (inactive); in test [5] it was > 100 µM (inactive); in [6], 92.9 µM (inactive). Besides, the GI50 in [17] is > 100 µM (inactive); in test [7], 99.3 µM (inactive); in test [8], > 100 µM (inactive); in [9] it was > 100 µM (inactive); in test [10], > 100 µM (inactive); in [12], > 100 µM (inactive). Moreover, the GI50 in test [13] was > 100 µM (inactive); in test [14] it was > 100 µM (inactive); in [15], 23.1 µM (inactive).
`CC1(Sc2ccccc2)CN(Cc2ccccc2)C1=O` (centres undefined): the GI50 in test [1] is > 100 µM (inactive); in test [2], > 100 µM (inactive); in [3], > 100 µM (inactive); in test [4], > 100 µM (inactive); in test [5], 49.7 µM (inactive); in test [6] it was > 100 µM (inactive). For the same compound, the GI50 is > 100 µM (inactive) in test [17]; > 100 µM (inactive) in test [7]; 88.5 µM (inactive) in [8]; > 100 µM (inactive) in test [9]; > 100 µM (inactive) in test [10]; > 100 µM (inactive) in [11]. In addition, the GI50 in test [12], in test [13], in test [14] and in [15] was > 100 µM (inactive) each time.

(Values after ChEMBL document CHEMBL1201862, “PubChem BioAssay data set” (2004).)
